Experimental data published in PubChem BioAssay (NCI).
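Results reflect a 48-hour exposure of cells in 96-well plates to compound at five concentrations. Definition used: TGI = concentration required for complete inhibition of growth.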

Experiments:
Assay in all cases: NCI anticancer screen, dose series, 48 h
XF 498 CNS = test system: XF 498 CNS
SNB-78 CNS = test system: SNB-78 CNS
SF-268 CNS = test system: SF-268 CNS
SK-MEL-2 melanoma = test system: SK-MEL-2 melanoma
SNB-19 CNS = test system: SNB-19 CNS
UACC-62 melanoma = test system: UACC-62 melanoma
K-562 leukemia = test system: K-562 leukemia
SN12C renal = test system: SN12C renal
UACC-257 melanoma = test system: UACC-257 melanoma
HL-60(TB) leukemia = test system: HL-60(TB) leukemia
NCI-H23 lung = test system: NCI-H23 lung
SW-620 colon = test system: SW-620 colon
A549 NSCLC = test system: A549 NSCLC
HOP-18 NSCLC = test system: HOP-18 NSCLC
HT29 colon = test system: HT29 colon
SK-MEL-28 melanoma = test system: SK-MEL-28 melanoma
M19-MEL melanoma = test system: M19-MEL melanoma
OVCAR-4 ovarian = test system: OVCAR-4 ovarian
LXFL 529 NSCLC = test system: LXFL 529 NSCLC
NCI-H460 lung = test system: NCI-H460 lung
IGROV1 ovarian = test system: IGROV1 ovarian
OVCAR-8 ovarian = test system: OVCAR-8 ovarian
SK-MEL-5 melanoma = test system: SK-MEL-5 melanoma
TK-10 renal = test system: TK-10 renal
M14 melanoma = test system: M14 melanoma
MOLT-4 leukemia = test system: MOLT-4 leukemia
NCI-H522 lung = test system: NCI-H522 lung
UO-31 renal = test system: UO-31 renal
CCRF-CEM leukemia = test system: CCRF-CEM leukemia
OVCAR-3 ovarian = test system: OVCAR-3 ovarian
RPMI-8226 leukemia = test system: RPMI-8226 leukemia
ACHN renal = test system: ACHN renal
DMS 114 small cell lung = test system: DMS 114 small cell lung
HCT-116 colon = test system: HCT-116 colon
HOP-92 NSCLC = test system: HOP-92 NSCLC
HOP-62 NSCLC = test system: HOP-62 NSCLC
786-0 renal = test system: 786-0 renal
HCT-15 colon = test system: HCT-15 colon
U251 CNS = test system: U251 CNS
OVCAR-5 ovarian = test system: OVCAR-5 ovarian
SF-295 CNS = test system: SF-295 CNS
COLO 205 colon = test system: COLO 205 colon
SNB-75 CNS = test system: SNB-75 CNS
DLD-1 colon = test system: DLD-1 colon
EKVX NSCLC = test system: EKVX NSCLC
DMS 273 small cell lung = test system: DMS 273 small cell lung
SK-OV-3 ovarian = test system: SK-OV-3 ovarian
A498 renal = test system: A498 renal
KM20L2 colon = test system: KM20L2 colon
SF-539 CNS = test system: SF-539 CNS
CAKI-1 renal = test system: CAKI-1 renal

Cn1c2c(c3ccccc31)CCN(CCCCN1CCN(c3cccc(Cl)c3)CC1)C2=O
TGI (XF 498 CNS): 28 µM | TGI (SNB-78 CNS): 27.8 µM | TGI (SF-268 CNS): 49.9 µM | TGI (SK-MEL-2 melanoma): 31.1 µM | TGI (SNB-19 CNS): 42.8 µM | TGI (UACC-62 melanoma): 23.6 µM | TGI (K-562 leukemia): 27.6 µM | TGI (SN12C renal): 25.8 µM | TGI (UACC-257 melanoma): 19.8 µM | TGI (HL-60(TB) leukemia): 18.9 µM | TGI (NCI-H23 lung): 27.4 µM | TGI (SW-620 colon): 26.4 µM | TGI (A549 NSCLC): 70.2 µM | TGI (HOP-18 NSCLC): > 100 µM | TGI (HT29 colon): 10.5 µM | TGI (SK-MEL-28 melanoma): 20.1 µM | TGI (M19-MEL melanoma): 25.5 µM | TGI (OVCAR-4 ovarian): 32.2 µM | TGI (LXFL 529 NSCLC): 23.7 µM | TGI (NCI-H460 lung): 28 µM | TGI (IGROV1 ovarian): 47 µM | TGI (OVCAR-8 ovarian): 48 µM | TGI (SK-MEL-5 melanoma): 21.8 µM | TGI (TK-10 renal): 25.1 µM | TGI (M14 melanoma): 10.7 µM | TGI (MOLT-4 leukemia): 31.6 µM | TGI (NCI-H522 lung): 25.6 µM | TGI (UO-31 renal): 22.4 µM | TGI (CCRF-CEM leukemia): > 100 µM | TGI (OVCAR-3 ovarian): 34 µM | TGI (RPMI-8226 leukemia): 27.4 µM | TGI (ACHN renal): 37.6 µM | TGI (DMS 114 small cell lung): 10.7 µM | TGI (HCT-116 colon): 19.4 µM | TGI (HOP-92 NSCLC): 34.7 µM | TGI (HOP-62 NSCLC): 30.7 µM | TGI (786-0 renal): 29.6 µM | TGI (HCT-15 colon): 29.7 µM | TGI (U251 CNS): 24.6 µM | TGI (OVCAR-5 ovarian): 16.9 µM | TGI (SF-295 CNS): 34 µM | TGI (COLO 205 colon): 11.2 µM | TGI (SNB-75 CNS): 9.61 µM | TGI (DLD-1 colon): 25.1 µM | TGI (EKVX NSCLC): 69.2 µM | TGI (DMS 273 small cell lung): 22.9 µM | TGI (SK-OV-3 ovarian): 37.8 µM | TGI (A498 renal): 27.7 µM | TGI (KM20L2 colon): 15.5 µM | TGI (SF-539 CNS): 26.5 µM | TGI (CAKI-1 renal): > 100 µM
